Consider seven compounds from patent US3951952A, “Broad spectrum antibiotics” (Pfizer Inc., priority 1973, dated 1976).

Test [1] concerns Ps. aeruginosa 52A104. Briefly: In vitro MIC, Ps. aeruginosa 52A104. The format is cell-based. An excerpt: (§1) The in vitro activity of the herein described compounds renders them useful for topical application in the form of ointments, creams and the like, or for sterilization purposes, e.g., sick-room utensils.
(§2) Table I compares the in vitro profile of 6-[D-2-phenyl-2-(amidinopropionamido)acetamido]penicillanic acid (PAP) with ampicillin (AMP) and carbenicillin (CAR).

The test system of test [2] is Ps. aeruginosa 52A173. Briefly: In vitro MIC, Ps. aeruginosa 52A173. The format is cell-based. To be noted: Pseudomonas aeruginosa, Table I, nutrient broth.
Source text: as §1, §2

Test [3] deals with S. aureus. Description: In vitro MIC, S. aureus. It is filed as cell-based. To be noted: Staphylococcus aureus, Table I, nutrient broth.
Source text: as §1, §2

The subject of test [4] is P. vulgaris 57A059. Description: In vitro MIC, P. vulgaris 57A059. It is filed as cell-based. Conditions: Proteus vulgaris.
Source text: as §1, §2

Test [5] has as its system A. aerogenes 55A002. Description: In vitro MIC, A. aerogenes 55A002. Conditions: Klebsiella aerogenes, Table I, nutrient broth. It is filed as cell-based.
Source text: as §1, §2

Test [6] concerns E. coli 51A266. Briefly: In vivo protection of mice against experimental E. coli 51A266 infection. Conditions: doses 0.5, 4 and 24 hours; for % Protection (% survivors): Table II; for % Survivors: Table IV. On the procedure: Table II presents the in vivo comparison data for the three compounds contained in Table I aganst several experimental infections in mice.
The values (% survivors) are obtained under standard conditions known to those skilled in the art. For the E. coli organism, the test compound is administered to the infected mice by a multiple dosing regimen in which the first dose is given 0.5 hour after inoculation and is repeated 4 and 24 hours later.
Table IV presents in vivo comparison data for the four compounds in Table III against E. coli infections in mice.
The values, reported as % survivors, are obtained under standard conditions familiar to those skilled in the art. The test compound is administered to the infected mice by a multiple dosing regimen in which the first dose is given 0.5 hour after inoculation and is repeated 4 and 24 hours later.

Test [7] has as its system E. coli 51A266. Description: In vitro MIC, E. coli 51A266. It is filed as cell-based.
Source text: as §1, §2

For test [8], the system named is Ps. aeruginosa 52A490. Briefly: In vitro MIC, Ps. aeruginosa 52A490. It is filed as cell-based.
Source text: as §1, §2

The subject of test [9] is Ser. marcescens 63A001. Description: In vitro MIC, Ser. marcescens 63A001. The format is cell-based.
Source text: as §1, §2

In test [10] the test system is Kleb. pneumoniae 53A009. Briefly: In vitro MIC, Kleb. pneumoniae 53A009. It is filed as cell-based.
Source text: as §1, §2

Test [11] relates to E. coli 51A002. Briefly: In vitro MIC, E. coli 51A002. Conditions: Escherichia coli, Table I, nutrient broth. It is filed as cell-based.
Source text: as §1, §2

The subject of test [12] is Kleb. pneumoniae 53A015. Description: In vitro MIC, Kleb. pneumoniae 53A015. It is filed as cell-based. Conditions: Klebsiella pneumoniae, Table I, nutrient broth.
Source text: as §1, §2

Test [13] has as its system A. aerogenes 55A004. Description: In vitro MIC, A. aerogenes 55A004. It is filed as cell-based. To be noted: Klebsiella aerogenes, Table I, nutrient broth.
Source text: as §1, §2

The test system of test [14] is gram-negative bacteria. To be noted: in words, U.S. Pat. No. 3,142,673, cited from earlier work.
In test [15] the test system is A. aerogenes. Description: In vitro MIC, A. aerogenes (strain not given). The format is cell-based. To be noted: Table III.
Source text: as §1, §2

The subject of test [16] is S. aureus 01A005. Briefly: In vitro MIC, S. aureus 01A005. Conditions: Table III. It is filed as cell-based.
Source text: as §1, §2

Test [17] relates to P. mirabilis 57C015. Description: In vitro MIC, P. mirabilis 57C015. Conditions: Table III. It is filed as cell-based.
Source text: as §1, §2

Where [18] appears, read: Pseudomonas aeruginosa, Table I, nutrient broth, read-out: MIC.
The mark [19] stands for this setting: Table I, P. vulgaris 57A059, nutrient broth, read-out: MIC.
The mark [20] stands for this setting: Serratia marcescens, Table I, nutrient broth, read-out: MIC.
Where [21] appears, read: Klebsiella pneumoniae, Table I, nutrient broth, read-out: MIC.
The mark [22] stands for this setting: Escherichia coli, Table I, E. coli 51A266, nutrient broth, read-out: MIC.

Converted amounts (≈) assume the structure as drawn. Like-named read-outs stand apart in the source and are kept apart here. Where only a bound is given, the exact number is not on record here.

What is called MIC is the smallest concentration in the dilution series that meets the test's criterion for growth inhibition. In the case of `CC1(C)S[C@@H]2[C@H](NC(=O)[C@H](N)c3ccccc3)C(=O)N2[C@H]1C(=O)O` [AMP, ampicillin, reference compound], the MIC stood at 200 mg/L (≈ 572 µM) in [1] (setting [18]); 38 mg/L (≈ 109 µM) in [2]; 0.09 mg/L (≈ 0.258 µM) in [3]; 6 mg/L (≈ 17.2 µM) in test [4] (setting [19]); 100 mg/L (≈ 286 µM) in test [5]; 3.12 mg/L (≈ 8.93 µM) in test [7] (Escherichia coli, 51A266). For the same compound, the minimum inhibitory concentration (MIC) in test [8] (setting [18]) stood at 0.78 mg/L (≈ 2.23 µM); in [9] (setting [20]), 200 mg/L (≈ 572 µM); in test [10] (setting [21]), 100 mg/L (≈ 286 µM); in test [11] it was 200 mg/L (≈ 572 µM); in test [12], 250 mg/L (≈ 715 µM); in test [13], 5 mg/L (≈ 14.3 µM). Besides, the “% Protection (% survivors)” value in test [6] (PO, 50 mg./kg.) stood at 80%; in [6] (PO, 200 mg./kg.) it was 90%; in test [6] (SC, 50 mg./kg.), 80%; in [6] (SC, 200 mg./kg.), 90%.
Consider `CC1(C)S[C@@H]2[C@H](NC(=O)C(C(=O)O)c3ccccc3)C(=O)N2[C@H]1C(=O)O` (stereo partly drawn) [CAR, carbenicillin], for which the MIC stood at 50 mg/L (≈ 132 µM) in [1] (setting [18]); 75 mg/L (≈ 198 µM) in test [2]; 1.56 mg/L (≈ 4.12 µM) in test [3]; 12.5 mg/L (≈ 33 µM) in test [4] (57A059); 25 mg/L (≈ 66.1 µM) in [5]; 3.12 mg/L (≈ 8.25 µM) in test [7] (setting [22]). The MIC is 0.6 mg/L (≈ 1.59 µM) in test [8] (setting [18]); 25 mg/L (≈ 66.1 µM) in test [9] (setting [20]); 200 mg/L (≈ 529 µM) in test [10] (setting [21]); 200 mg/L (≈ 529 µM) in [11]; more than 200 mg/L in test [12]; 50 mg/L (≈ 132 µM) in [13]. For the same compound, the “utility via oral administration” value in test [14] (oral) is given as “limited utility via oral administration”. Moreover, in [14] (parenteral route), the “efficacy against gram-negative bacteria” value is on record as “greater efficacy against gram-negative bacteria via the parenteral route of administration”.
Take `CC1(C)S[C@@H]2[C@H](NC(=O)[C@H](NC(=O)CCC(=N)N)c3ccccc3)C(=O)N2[C@H]1C(=O)O` [PAP, 6-[D-2-phenyl-2-(amidinopropionamido)acetamido]penicillanic acid]: the MIC in [1] (setting [18]) was 12.5 mg/L (≈ 27.9 µM); in [2] it was 0.78 mg/L (≈ 1.74 µM); in test [4] (setting [19]) it was 1.56 mg/L (≈ 3.49 µM); in test [5], 100 mg/L (≈ 223 µM); in [7] (setting [22]), 1.56 mg/L (≈ 3.49 µM); in test [8] (setting [18]), 1.56 mg/L (≈ 3.49 µM). The MIC in [9] (setting [20]) was 3.12 mg/L (≈ 6.97 µM); in test [10] (setting [21]), 25 mg/L (≈ 55.9 µM); in [11], 200 mg/L (≈ 447 µM); in test [12] it was more than 200 mg/L.
Take `CC1(C)S[C@@H]2[C@H](NC(=O)C(NC(=O)CNC(=N)c3ccc(Br)cc3)c3ccccc3)C(=O)N2[C@H]1C(=O)O` (stereo partly drawn) [X = Br]: the MIC in test [1] (Table III) came out at 25 mg/L (≈ 42.5 µM); in test [15], 3.12 mg/L (≈ 5.3 µM); in test [16], 0.39 mg/L (≈ 0.663 µM); in [7] (Table III, E. coli 51A266), 0.39 mg/L (≈ 0.663 µM); in test [8] (Table III), 6.25 mg/L (≈ 10.6 µM); in test [17] it was 3.12 mg/L (≈ 5.3 µM). Besides, the minimal inhibitory concentration (MIC) in [9] (Table III) is 6.25 mg/L (≈ 10.6 µM); in test [10] (Table III), 12.5 mg/L (≈ 21.2 µM). In addition, the “% Survivors” value in [6] (PO, 25 mg./kg.) was determined as 10%; in test [6] (PO, 50 mg./kg.) it was 0%; in [6] (PO, 200 mg./kg.), 0%; in [6] (SC, 25 mg./kg.), 50%; in [6] (SC, 50 mg./kg.) it was 60%; in test [6] (SC, 200 mg./kg.), 90%.
For the compound `CC1(C)S[C@@H]2[C@H](NC(=O)C(NC(=O)CNC(=N)c3ccc(Cl)cc3)c3ccccc3)C(=O)N2[C@H]1C(=O)O` (stereo partly drawn) [X = Cl], the minimal inhibitory concentration (MIC) in test [1] (Table III) was 25 mg/L (≈ 46 µM); in [15], 3.12 mg/L (≈ 5.73 µM); in test [16] it was 0.39 mg/L (≈ 0.717 µM); in test [7] (Table III, E. coli 51A266), 0.78 mg/L (≈ 1.43 µM); in [8] (Table III), 12.5 mg/L (≈ 23 µM); in test [17] it was 3.12 mg/L (≈ 5.73 µM). Besides, the figures for the minimum inhibitory concentration (MIC) in [9] (Table III) and in [10] (Table III) were 6.25 mg/L (≈ 11.5 µM) and 12.5 mg/L (≈ 23 µM), respectively. The “% Survivors” value worked out at 0% in [6] (PO, 25 mg./kg.); 0% in test [6] (PO, 50 mg./kg.); 0% in test [6] (PO, 200 mg./kg.); 50% in [6] (SC, 25 mg./kg.); 60% in [6] (SC, 50 mg./kg.); 70% in test [6] (SC, 200 mg./kg.).
For `CC1(C)S[C@@H]2[C@H](NC(=O)C(NC(=O)CNC(=N)c3ccc(F)cc3)c3ccccc3)C(=O)N2[C@H]1C(=O)O` (stereo partly drawn) [X = F], the minimum inhibitory concentration (MIC) in [1] (Table III) stood at 12.5 mg/L (≈ 23.7 µM); in test [15], 25 mg/L (≈ 47.4 µM); in test [16] it was 0.39 mg/L (≈ 0.739 µM); in test [7] (Table III, E. coli 51A266), 1.56 mg/L (≈ 2.96 µM); in test [8] (Table III), 3.12 mg/L (≈ 5.91 µM); in [17], 3.12 mg/L (≈ 5.91 µM). Moreover, the MIC amounted to 6.25 mg/L (≈ 11.8 µM) in test [9] (Table III) and 25 mg/L (≈ 47.4 µM) in [10] (Table III). Further, the “% Survivors” value in test [6] (PO, 25 mg./kg.) was 10%; in test [6] (PO, 50 mg./kg.), 0%; in [6] (PO, 200 mg./kg.) it was 10%; in test [6] (SC, 25 mg./kg.), 50%; in test [6] (SC, 50 mg./kg.), 70%; in test [6] (SC, 200 mg./kg.), 90%.
Turning to `CC1(C)S[C@@H]2[C@H](NC(=O)C(NC(=O)CNC(=N)c3ccccc3)c3ccccc3)C(=O)N2[C@H]1C(=O)O` (stereo partly drawn) [X = H], the minimal inhibitory concentration (MIC) in test [1] (Table III) stood at 25 mg/L (≈ 49.1 µM); in test [15], 25 mg/L (≈ 49.1 µM); in test [16] it was 0.78 mg/L (≈ 1.53 µM); in test [7] (Table III, E. coli 51A266), 12.5 mg/L (≈ 24.5 µM); in test [8] (Table III), 12.5 mg/L (≈ 24.5 µM); in test [17], 12.5 mg/L (≈ 24.5 µM). Further, the MIC in test [9] (Table III) is 12.5 mg/L (≈ 24.5 µM); in [10] (Table III), 100 mg/L (≈ 196 µM). Further, the “% Survivors” value amounted to 0% in test [6] (PO, 25 mg./kg.); 0% in [6] (PO, 50 mg./kg.); 10% in test [6] (PO, 200 mg./kg.); 10% in test [6] (SC, 25 mg./kg.); 70% in test [6] (SC, 50 mg./kg.); 90% in [6] (SC, 200 mg./kg.).
